Assay results published in the supplement of paper PMC7840683.
± gives the standard deviation of the averaged measurements.

Test system: HepaRG
Assay: LDH release cytotoxicity, % of total lysis control; higher = more cytotoxic
Conditions: 48 h
In short: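 The CytoTox-ONE kit was used to read LDH in 50 µL spent medium as resorufin fluorescence on a Tecan Safire, with 0.1% Triton X added to total lysis wells. Beforehand, single-lot HepaRG cells on collagen I-coated 96-well plates had been exposed in duplicate for 48 h to eight-point half-log series (top 100 µM) in serum-free induction medium containing 0.5% DMSO. Percent cytotoxicity was normalized against on-plate vehicle and total lysis controls and averaged over duplicates.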

SMILES	LDH release cytotoxicity (0.03162 µM) [%]	LDH release cytotoxicity (0.1 µM) [%]	LDH release cytotoxicity (0.3162278 µM) [%]	LDH release cytotoxicity (1 µM) [%]	LDH release cytotoxicity (3.16228 µM) [%]	LDH release cytotoxicity (10 µM) [%]	LDH release cytotoxicity (31.6228 µM) [%]	LDH release cytotoxicity (100 µM) [%]	LDH release cytotoxicity (0.0314647 µM) [%]	LDH release cytotoxicity (0.0995 µM) [%]	LDH release cytotoxicity (0.3146466 µM) [%]	LDH release cytotoxicity (0.995 µM) [%]	LDH release cytotoxicity (3.14647 µM) [%]	LDH release cytotoxicity (9.95 µM) [%]	LDH release cytotoxicity (31.4647 µM) [%]	LDH release cytotoxicity (99.5 µM) [%]
COCC(C)OCC(C)OCC(C)O (stereo unspecified) [Tripropylene glycol monomethyl ether]	-2.65 ± 0.75	-2.37 ± 0.59	-2.65 ± 0.77	-3.43 ± 0.28	-2.88 ± 0.31	-1.77 ± 1	-1.51 ± 0.6	0.876 ± 1.4								
O=P(OC(CCl)CCl)(OC(CCl)CCl)OC(CCl)CCl [Tris(1,3-dichloro-2-propyl) phosphate]	0.268 ± 1.8	-1.46 ± 0.26	-0.407 ± 0.3	-1.12 ± 0.76	-0.951 ± 0.83	-0.799 ± 0.15	0.114 ± 0.25	9.87 ± 0.53								
O=c1n(CC2CO2)c(=O)n(CC2CO2)c(=O)n1CC1CO1 (stereo unspecified) [Tris(2,3-epoxypropyl)isocyanurate]	0.512 ± 0.2	0.218 ± 0.46	0.217 ± 0.89	0.322 ± 0.34	-0.576 ± 0.33	0.383 ± 0.033	0.616 ± 0.68	1.86 ± 0.47								
O=P(OCCCl)(OCCCl)OCCCl [Tris(2-chloroethyl) phosphate]	0.00945 ± 0.48	-0.629 ± 0.15	-0.615 ± 0.025	-1.15 ± 0.9	-0.623 ± 0.18	-0.4 ± 0.39	0.187 ± 0.64	0.367 ± 0.4								
CCCCC(CC)COP(=O)(OCC(CC)CCCC)OCC(CC)CCCC (stereo unspecified) [Tris(2-ethylhexyl) phosphate]	-1.762 ± 0.016	-1.14 ± 0.93	-1.21 ± 1.2	-1.28 ± 1.1	-1.23 ± 0.96	-1.26 ± 1.1	-0.783 ± 1.4	0.473 ± 0.56								
CCCCC(CC)COC(=O)c1ccc(C(=O)OCC(CC)CCCC)c(C(=O)OCC(CC)CCCC)c1 (stereo unspecified) [Tris(2-ethylhexyl) trimellitate]	-1.9 ± 0.9	-0.779 ± 0.11	-1.6 ± 0.82	-0.598 ± 1.5	-1.18 ± 0.4	-0.738 ± 0.28	-0.634 ± 0.44	5.97 ± 0.36								
CC1(C)CCC(=Cc2ccc(Cl)cc2)C1(O)Cn1cncn1 (stereo unspecified) [Triticonazole]									-0.271 ± 1.9	-0.849 ± 0.067	-0.205 ± 0.74	-1.22 ± 0.81	-0.364 ± 0.038	0.229 ± 0.84	1.76 ± 0.041	5.55 ± 0.43
